Source: patent US9221756B2, “Pyrrole derivatives” (priority 2011, dated 2015)

The compounds below were run against pneumolysin (Streptococcus pneumoniae serotype 2, UniProt Q04IN8) (assay: Inhibition of the haemolytic activity of pneumolysin (sheep erythrocytes)). Conditions: IC50, inhibition of pneumolysin-induced haemolysis of sheep erythrocytes; class symbols of Table 1.
Assay type: cell-based

Chain of pneumolysin (Q04IN8 whole entry): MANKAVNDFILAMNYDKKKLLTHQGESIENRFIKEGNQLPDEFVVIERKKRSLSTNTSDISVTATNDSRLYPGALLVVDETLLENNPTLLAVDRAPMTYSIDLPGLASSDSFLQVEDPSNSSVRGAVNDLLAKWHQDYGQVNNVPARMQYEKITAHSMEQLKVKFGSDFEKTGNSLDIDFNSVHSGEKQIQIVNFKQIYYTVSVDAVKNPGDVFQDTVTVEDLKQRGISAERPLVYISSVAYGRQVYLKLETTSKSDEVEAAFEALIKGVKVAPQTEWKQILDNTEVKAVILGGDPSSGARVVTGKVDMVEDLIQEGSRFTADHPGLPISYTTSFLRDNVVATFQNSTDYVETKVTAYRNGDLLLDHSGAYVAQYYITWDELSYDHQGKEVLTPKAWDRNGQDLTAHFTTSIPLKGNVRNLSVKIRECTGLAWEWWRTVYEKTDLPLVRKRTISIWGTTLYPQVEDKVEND

For `COc1ccc(-n2c(C(=O)N3CCN(C(C)=O)CC3)c(OCc3ccccc3)c(OCc3ccccc3)c2C(=O)N2CCN(C(C)=O)CC2)cc1` [UL1-059, 1,1′-(4,4′-(3,4-bis(benzyloxy)-1-(4-methoxyphenyl)-1H-pyrrole-2,5-dicarbonyl)bis(piperazine-4,1-diyl))diethanone], which IC50 is on record?
The IC50 was 20 to 60 µM.

How did the IC50 turn out when `CCOC(=O)c1c(O)c(O)c(C(=O)OCC)n1-c1ccc(OC)c(I)c1` [UL2-033, diethyl 3,4-dihydroxy-1-(3-iodo-4-methoxyphenyl)-1H-pyrrole-2,5-dicarboxylate] was run?
Its IC50 is less than 10 µM.

With `CCNC(=O)c1c(OCc2ccccc2)c(OCc2ccccc2)c(C(=O)N(C)C)n1-c1ccc(OC)cc1` [UL1-055, 3,4-bis(benzyloxy)-N^2-ethyl-1-(4-methoxyphenyl)-N^5,N^5-dimethyl-1H-pyrrole-2,5-dicarboxamide] as the compound, how does the IC50 read?
The IC50 was 10 to 20 µM.

`CCOC(=O)c1c(O)c(O)c(C(=O)OCC)n1-c1ccc(OC(F)(F)F)cc1` [UL2-005, diethyl 3,4-dihydroxy-1-(4-(trifluoromethoxy)phenyl)-1H-pyrrole-2,5-dicarboxylate] was tested. Which IC50 did it give?
The IC50 was less than 10 µM.

For `CN(C)C(=O)c1ccc(-n2c(C(=O)N(C)C)c(O)c(O)c2C(=O)N(C)C)cc1` [UL1-029, 1-(4-(dimethylcarbamoyl)phenyl)-3,4-dihydroxy-N^2,N^2,N^5,N^5-tetramethyl-1H-pyrrole-2,5-dicarboxamide], which IC50 is on record?
The IC50 was less than 10 µM.

How did the IC50 turn out when `CCOC(=O)c1c(O)c(O)c(C(=O)OCC)n1-c1cccc(Oc2ccccc2)c1` [UL2-018, diethyl 3,4-dihydroxy-1-(3-phenoxyphenyl)-1H-pyrrole-2,5-dicarboxylate] was run?
Its IC50 is less than 10 µM.

How did the IC50 turn out when `CCOC(=O)c1c(O)c(O)c(C(=O)OCC)n1-c1ccc(C(C)C)cc1` [UL2-006, diethyl 3,4-dihydroxy-1-(4-isopropylphenyl)-1H-pyrrole-2,5-dicarboxylate] was run?
The IC50 was less than 10 µM.

For `COc1ccc(-n2c(C(=O)N(C)C)c(OC(=O)c3ccc(COP(=O)(O)O)cc3)c(OC(=O)c3ccc(COP(=O)(O)O)cc3)c2C(=O)N(C)C)cc1` [UL1-124, 2,5-bis(dimethylcarbamoyl)-1-(4-methoxyphenyl)-1H-pyrrole-3,4-diyl bis(4-((phosphonooxy)methyl)benzoate)], which IC50 is on record?
The IC50 was less than 10 µM.

With `O=C(c1c(O)c(O)c(C(=O)N2CCCCC2)n1-c1ccc(F)cc1)N1CCCCC1` [UL1-011, (1-(4-fluorophenyl)-3,4-dihydroxy-1H-pyrrole-2,5-diyl)bis(piperidin-1-ylmethanone)] as the compound, how does the IC50 read?
The IC50 was less than 10 µM.

`CCOC(=O)c1c(O)c(O)c(C(=O)N(CC)CC)n1-c1ccc(OC)cc1` [UL1-041, ethyl 5-(diethylcarbamoyl)-3,4-dihydroxy-1-(4-methoxyphenyl)-1H-pyrrole-2-carboxylate] was tested. Which IC50 did it give?
Its IC50 is less than 10 µM.

How did the IC50 turn out when `CN(C)C(=O)c1c(OCc2ccccc2)c(OCc2ccccc2)c(C(=O)N(C)C)n1-c1ccc(C(F)(F)F)cc1` [UL1-054, 3,4-bis(benzyloxy)-N^2,N^2,N^5,N^5-tetramethyl-1-(4-(trifluoromethyl)phenyl)-1H-pyrrole-2,5-dicarboxamide] was run?
The IC50 was 10 to 20 µM.

For `COc1ccccc1-n1c(C(=O)N(C)C)c(OCc2ccccc2)c(OCc2ccccc2)c1C(=O)N(C)C` [UL1-050, 3,4-bis(benzyloxy)-1-(2-methoxyphenyl)-N^2,N^2,N^5,N^5-tetramethyl-1H-pyrrole-2,5-dicarboxamide], which IC50 is on record?
Its IC50 is 10 to 20 µM.

How did the IC50 turn out when `CCNC(=O)c1c(OCc2ccccc2)c(OCc2ccccc2)c(C(=O)NCC)n1-c1ccc(OC)cc1` [UL1-074, 3,4-bis(benzyloxy)-N2,N5-diethyl-1-(4-methoxyphenyl)-1H-pyrrole-2,5-dicarboxamide] was run?
Its IC50 is 20 to 60 µM.

How did the IC50 turn out when `CCOc1ccc(-n2c(C(=O)N(C)C)c(OCc3ccccc3)c(OCc3ccccc3)c2C(=O)N(C)C)cc1` [UL1-052, 3,4-bis(benzyloxy)-1-(4-ethoxyphenyl)-N^2,N^2,N^5,N^5-tetramethyl-1H-pyrrole-2,5-dicarboxamide] was run?
Its IC50 is less than 10 µM.

How did the IC50 turn out when `COc1ccc(-n2c(C(=O)OC(C)C)c(OC(=O)C(C)(C)COCCOCCOP(=O)(O)O)c(OC(=O)C(C)(C)COCCOCCOP(=O)(O)O)c2C(=O)N(C)C)cc1` [UL1-122, 2-(dimethylcarbamoyl)-5-(isopropoxycarbonyl)-1-(4-methoxyphenyl)-1H-pyrrole-3,4-diyl bis(2,2-dimethyl-3-(2-(2-(phosphonooxy)ethoxy)ethoxy)propanoate)] was run?
Its IC50 is less than 10 µM.

Which IC50 does the source give for `COc1ccc(-n2c(C#N)c(O)c(O)c2C(=O)N(C)C)cc1` [UL1-031, 5-cyano-3,4-dihydroxy-1-(4-methoxyphenyl)-N,N-dimethyl-1H-pyrrole-2-carboxamide] here?
Its IC50 is less than 10 µM.

`CCOC(=O)c1c(O)c(O)c(C(=O)OCC)n1-c1ccc(OC)cc1OC` [UL2-015, diethyl 1-(2,4-dimethoxyphenyl)-3,4-dihydroxy-1H-pyrrole-2,5-dicarboxylate] was tested. Which IC50 did it give?
Its IC50 is less than 10 µM.

`COc1ccc(-n2c(C(=O)OC3C(C)CCCC3C)c(O)c(O)c2C(=O)N(C)C)cc1` (centres unmarked) [UL1-113, 2,6-dimethylcyclohexyl 5-(dimethylcarbamoyl)-3,4-dihydroxy-1-(4-methoxyphenyl)-1H-pyrrole-2-carboxylate] was tested. Which IC50 did it give?
The IC50 was less than 10 µM.

With `CCOC(=O)c1c(OCC(=O)OC(C)(C)C)c(OCc2ccccc2)c(C(=O)OCC)n1-c1ccc(OC)cc1` [UL2-028, diethyl 3-(benzyloxy)-4-(2-(tert-butoxy)-2-oxoethoxy)-1-(4-methoxyphenyl)-1H-pyrrole-2,5-dicarboxylate] as the compound, how does the IC50 read?
The IC50 was 20 to 60 µM.

Which IC50 does the source give for `CCOC(=O)c1c(O)c(O)c(C(=O)OCC)n1-c1ccc(C(F)(F)F)cc1` [UL2-013, diethyl 3,4-dihydroxy-1-(4-(trifluoromethyl)phenyl)-1H-pyrrole-2,5-dicarboxylate] here?
Its IC50 is less than 10 µM.

With `COc1ccc(-n2c(C(=O)N3CCN(C(C)=O)CC3)c(O)c(O)c2C(=O)N2CCN(C(C)=O)CC2)cc1` [UL1-033, 1,1′-(4,4′-(3,4-dihydroxy-1-(4-methoxyphenyl)-1H-pyrrole-2,5-dicarbonyl)bis(piperazine-4,1-diyl))diethanone] as the compound, how does the IC50 read?
The IC50 was less than 10 µM.

For `CCOC(=O)c1c(O)c(O)c(C(=O)N(C)C)n1-c1ccc(OC)c(I)c1` [UL1-043, ethyl 5-(dimethylcarbamoyl)-3,4-dihydroxy-1-(3-iodo-4-methoxyphenyl)-1H-pyrrole-2-carboxylate], which IC50 is on record?
Its IC50 is less than 10 µM.

How did the IC50 turn out when `CCOC(=O)c1c(O)c(O)c(C(=O)N(C)C)n1-c1ccc(OCCCN2CCOCC2)cc1` [UL1-102, ethyl 5-(dimethylcarbamoyl)-3,4-dihydroxy-1-(4-(3-morpholinopropoxy)phenyl)-1H-pyrrole-2-carboxylate] was run?
The IC50 was less than 10 µM.

How did the IC50 turn out when `CCOc1ccc(-n2c(C(=O)N3CCOCC3)c(O)c(O)c2C(=O)N2CCOCC2)cc1` [UL1-022, (1-(4-ethoxyphenyl)-3,4-dihydroxy-1H-pyrrole-2,5-diyl)bis(morpholinomethanone)] was run?
The IC50 was less than 10 µM.

Which IC50 does the source give for `COc1ccc(-n2c(C(N)=O)c(O)c(O)c2C(N)=O)cc1` [UL1-073, 3,4-dihydroxy-1-(4-methoxyphenyl)-1H-pyrrole-2,5-dicarboxamide] here?
Its IC50 is less than 10 µM.

With `COc1ccc(-n2c(C(C)=O)c(O)c(O)c2C(=O)N(C)C)cc1` [UL1-091, 5-acetyl-3,4-dihydroxy-1-(4-methoxyphenyl)-N,N-dimethyl-1H-pyrrole-2-carboxamide] as the compound, how does the IC50 read?
Its IC50 is less than 10 µM.

For `COc1ccc(-n2c(C(=O)N3CCOCC3)c(O)c(O)c2C(=O)N2CCOCC2)cc1` [UL1-004, (3,4-dihydroxy-1-(4-methoxyphenyl)-1H-pyrrole-2,5-diyl)bis(morpholinomethanone)], which IC50 is on record?
The IC50 was less than 10 µM.

`CCOC(=O)c1c(OCc2ccccc2)c(OCc2ccccc2)c(-c2ccncc2)n1-c1ccc(OC)cc1` [UL1-084, ethyl 3,4-bis(benzyloxy)-1-(4-methoxyphenyl)-5-(pyridin-4-yl)-1H-pyrrole-2-carboxylate] was tested. Which IC50 did it give?
The IC50 was less than 10 µM.

`CCOC(=O)c1c(O)c(O)c(C#N)n1-c1ccc(F)cc1` [UL1-039, ethyl 5-cyano-1-(4-fluorophenyl)-3,4-dihydroxy-1H-pyrrole-2-carboxylate] was tested. Which IC50 did it give?
Its IC50 is 20 to 60 µM.

`CCOC(=O)c1c(O)c(O)c(C(=O)N(C)C)n1-c1ccc(OCCOCCOCCOC)cc1` [UL1-095, ethyl 5-(dimethylcarbamoyl)-3,4-dihydroxy-1-(4-(2-(2-(2-methoxyethoxy)ethoxy)ethoxy)phenyl)-1H-pyrrole-2-carboxylate] was tested. Which IC50 did it give?
The IC50 was less than 10 µM.

`CCOC(=O)c1c(O)c(OCC(=O)OC(C)(C)C)c(C(=O)OCC)n1-c1ccc(OC)cc1` [UL2-030, diethyl 3-(2-(tert-butoxy)-2-oxoethoxy)-4-hydroxy-1-(4-methoxyphenyl)-1H-pyrrole-2,5-dicarboxylate] was tested. Which IC50 did it give?
The IC50 was 10 to 20 µM.

Which IC50 does the source give for `CCOC(=O)c1c(O)c(O)c(C(=O)OCC)n1-c1ccc(OCCOCCOCCOCCOC)cc1` [UL2-036, diethyl 1-(4-(2,5,8,11-tetraoxatridecan-13-yloxy)phenyl)-3,4-dihydroxy-1H-pyrrole-2,5-dicarboxylate] here?
The IC50 was less than 10 µM.

With `NC(=O)c1c(OCc2ccccc2)c(OCc2ccccc2)c(C(N)=O)n1-c1ccc(F)cc1` [UL1-075, 3,4-bis(benzyloxy)-1-(4-fluorophenyl)-1H-pyrrole-2,5-dicarboxamide] as the compound, how does the IC50 read?
Its IC50 is 20 to 60 µM.

Which IC50 does the source give for `CCOC(=O)c1c(O)c(O)c(C(=O)OCC)n1-c1ccc(OCCOC)cc1` [UL2-034, diethyl 3,4-dihydroxy-1-(4-(2-methoxyethoxy)phenyl)-1H-pyrrole-2,5-dicarboxylate] here?
Its IC50 is less than 10 µM.

For `CN(C(=O)c1c(O)c(O)c(C(=O)N(C)c2ccccc2)n1-c1ccc(F)cc1)c1ccccc1` [UL1-007, 1-(4-fluorophenyl)-3,4-dihydroxy-N^2,N^5-dimethyl-N^2,N^5-diphenyl-1H-pyrrole-2,5-dicarboxamide], which IC50 is on record?
Its IC50 is 20 to 60 µM.

With `CCOC(=O)c1c(O)c(OCCO)c(C(=O)OCC)n1-c1ccc(F)cc1` [UL2-025, diethyl 1-(4-fluorophenyl)-3-hydroxy-4-(2-hydroxyethoxy)-1H-pyrrole-2,5-dicarboxylate] as the compound, how does the IC50 read?
The IC50 was 20 to 60 µM.

Same assay, conditions: IC50, inhibition of pneumolysin-induced haemolysis of sheep erythrocytes; specific values

For `COc1ccc(-n2c(C(=O)N3CCOCC3)c(O)c(O)c2C(=O)N2CCOCC2)cc1` [UL1-004, (3,4-dihydroxy-1-(4-methoxyphenyl)-1H-pyrrole-2,5-diyl)bis(morpholinomethanone)], which IC50 is on record?
The IC50 was 0.17 µM.

Same assay, conditions: inhibition of pneumolysin-induced haemolysis of sheep erythrocytes; class symbols of Table 1; read-out: IC50

Which IC50 does the source give for `CCOC(=O)c1c(O)c(OP(=O)(OCC)OCC)c(C(=O)N(C)C)n1-c1ccc(OC)cc1` [UL1-097, ethyl 4-((diethoxyphosphoryl)oxy)-5-(dimethylcarbamoyl)-3-hydroxy-1-(4-methoxyphenyl)-1H-pyrrole-2-carboxylate] here?
The IC50 was greater than 60 µM.
